For 30 compounds, IC50 results are on record in patent US20240360151A1 (SANOFI, priority 2023, published 2024).

The target of one experiment is T1, NLRP3 inflammasome (Homo sapiens, UniProt Q96P20).
T1 construct: endogenous in cells; host or cells: THP-1 monocytic cells
In words: IL-1β secretion assay (NLRP3 IC50) in LPS-primed, nigericin-activated THP-1 cells, HTRF. It is filed as cell-based. To be noted: monocytic THP-1 cells; LPS 10 ng/mL 3 h priming, then compound + nigericin 10 μM 2 h; relative IC50, 10 concentrations, geometric mean. An outline of the steps:
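IL-1β in supernatant read by HTRF after 2 h co-incubation of compound (0.1% DMSO, 10 concentrations, 1:3 series) with nigericin at 10 μM final, following 3 h LPS (10 ng/mL) priming of THP-1 monocytes at 37° C. Inhibition normalised to unactivated and no-compound controls; geometric-mean relative IC50 from 4-parameter logistic model.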

The test system of experiment [1] is NF-kB pathway (TNF-α secretion by THP-1 cells). Kind of experiment: TNF-α secretion assay in LPS-stimulated THP-1 cells, Lumit immunoassay. The experiment is classed as cell-based, human. To be noted: Homo sapiens, THP-1, 3 h, monocytic THP-1 cells, LPS 10 ng/mL, relative IC50, 10 concentrations, geometric mean. Put shortly:
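TNF-α release was quantified directly in the cell plate by Lumit immunoassay after a 3-h, 10 ng/mL LPS trigger of compound-treated THP-1 cells (RPMI, 5% FBS). Percent inhibition versus no-compound and unstimulated controls fed a 4-parameter logistic fit over 10 concentrations, giving geometric-mean relative IC50.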

T1 sequence (Q96P20 whole entry): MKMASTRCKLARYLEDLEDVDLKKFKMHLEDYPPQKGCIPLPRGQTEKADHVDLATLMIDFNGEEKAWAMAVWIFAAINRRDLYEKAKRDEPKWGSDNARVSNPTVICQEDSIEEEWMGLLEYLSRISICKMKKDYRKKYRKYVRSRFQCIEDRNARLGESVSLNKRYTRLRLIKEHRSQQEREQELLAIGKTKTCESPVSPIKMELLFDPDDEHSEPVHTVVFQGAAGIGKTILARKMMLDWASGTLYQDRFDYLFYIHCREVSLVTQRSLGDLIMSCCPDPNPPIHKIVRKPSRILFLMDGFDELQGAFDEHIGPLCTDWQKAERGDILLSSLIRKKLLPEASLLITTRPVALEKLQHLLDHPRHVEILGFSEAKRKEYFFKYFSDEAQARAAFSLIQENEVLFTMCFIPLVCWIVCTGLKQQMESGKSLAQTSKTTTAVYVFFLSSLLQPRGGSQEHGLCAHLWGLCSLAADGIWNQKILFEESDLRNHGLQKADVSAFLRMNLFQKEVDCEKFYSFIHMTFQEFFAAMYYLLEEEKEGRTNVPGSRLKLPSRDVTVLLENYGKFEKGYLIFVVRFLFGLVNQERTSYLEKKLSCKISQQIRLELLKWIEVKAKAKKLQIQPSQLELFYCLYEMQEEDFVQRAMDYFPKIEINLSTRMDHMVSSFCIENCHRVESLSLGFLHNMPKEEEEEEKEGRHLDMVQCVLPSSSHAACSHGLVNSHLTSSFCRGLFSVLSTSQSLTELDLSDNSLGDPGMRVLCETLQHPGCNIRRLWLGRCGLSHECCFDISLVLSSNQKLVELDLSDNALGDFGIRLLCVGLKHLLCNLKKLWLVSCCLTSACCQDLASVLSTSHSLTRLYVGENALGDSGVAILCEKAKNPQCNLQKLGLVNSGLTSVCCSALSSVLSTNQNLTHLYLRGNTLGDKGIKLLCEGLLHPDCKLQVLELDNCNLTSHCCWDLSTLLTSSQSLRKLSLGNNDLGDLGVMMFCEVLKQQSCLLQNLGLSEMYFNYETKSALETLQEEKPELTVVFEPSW

With `CC(=O)NC[C@@H]1CCCN(c2ccc(-c3c(O)cc(Cl)cc3Cl)nn2)C1` [Example 58, N-[[(3S)-1-[6-(2,4-dichloro-6-hydroxy-phenyl)pyridazin-3-yl]-3-piperidyl]methyl]acetamide], the half-maximal inhibitory concentration (IC50) on NLRP3 inflammasome was 64 nM; in experiment [1] it was greater than 10000 nM.

As to `Cc1cc(C(F)(F)F)cc(O)c1-c1ccc(N2CCO[C@H](CN(C)C)C2)nn1` (single isomer, unassigned) [Example 59, 2-[6-[-2-[(dimethylamino)methyl]morpholin-4-yl]pyridazin-3-yl]-3-methyl-5-(trifluoromethyl)phenol], the IC50 at NLRP3 inflammasome is 203 nM; in experiment [1] it was greater than 10000 nM.

With `Cc1cc(C)c(-c2ccc(N3CCC[C@]4(C3)C[C@H](O)C4)nn2)c(O)c1` (single isomer, unassigned; isomer 1) [Example 175, 6-[6-(2-hydroxy-4,6-dimethyl-phenyl)pyridazin-3-yl]-6-azaspiro[3.5]nonan-2-ol Isomer 1], the IC50 on NLRP3 inflammasome was 522 nM; in experiment [1], greater than 10000 nM.

Consider `Cc1cc(C)c(-c2ccc(N3CCOC([C@@H](C)O)C3)nn2)c(O)c1` (single isomer, unassigned) [Example 180], for which the 50% inhibitory concentration (IC50) was 473 nM on NLRP3 inflammasome and greater than 10000 nM in experiment [1].

Turning to `Cc1cc(C(F)(F)F)cc(O)c1-c1ccc(N2C[C@@H](CO)O[C@@H](C)C2)nn1` [Example 297, 2-[6-[(2S,6S)-2-(hydroxymethyl)-6-methyl-morpholin-4-yl]pyridazin-3-yl]-3-methyl-5-(trifluoromethyl)phenol], the 50% inhibitory concentration (IC50) at NLRP3 inflammasome is 11 nM; in experiment [1], greater than 10000 nM.

As for `COC[C@H]1CN(c2ccc(-c3c(O)cc(Cl)cc3Cl)nn2)CCO1` [Example 33, 3,5-dichloro-2-[6-[(2R)-2-(methoxymethyl)morpholin-4-yl]pyridazin-3-yl]phenol], the concentration for half-maximal inhibition (IC50) at NLRP3 inflammasome was 239 nM; in experiment [1], greater than 10000 nM.

For `Cc1cc(O)c(-c2ccc(N3CCO[C@H](CO)C3)nn2)c(C(F)F)c1` [Example 153, 3-(difluoromethyl)-2-[6-[(2S)-2-(hydroxymethyl)morpholin-4-yl]pyridazin-3-yl]-5-methyl-phenol], the half-inhibitory concentration (IC50) at NLRP3 inflammasome is 47 nM; in experiment [1] it was greater than 10000 nM.

With `CN(C)C[C@H]1CCN(c2ccc(-c3c(O)cc(Cl)cc3Cl)nn2)C1` [Example 41, 3,5-dichloro-2-[6-[(3R)-3-[(dimethylamino)methyl]pyrrolidin-1-yl]pyridazin-3-yl]phenol], the concentration for half-maximal inhibition (IC50) is 252 nM on NLRP3 inflammasome and greater than 10000 nM in experiment [1].

Consider `Cc1cc(C(F)(F)F)cc(O)c1-c1ccc(N2CCO[C@H]3CCN(C)C[C@H]32)nn1` (racemic) [Example 226, 2-[6-[rac-(4aR,8aS)-6-methyl-3,4a,5,7,8,8a-hexahydro-2H-pyrido[4,3-b][1,4]oxazin-4-yl]pyridazin-3-yl]-3-methyl-5-(trifluoromethyl)phenol], for which the IC50 at NLRP3 inflammasome was 2 nM; in experiment [1] it was greater than 10000 nM.

With `Cc1cc(N2CCO[C@H](CO)C2)nnc1-c1ccc(Cl)cc1O` [Example 85, 5-chloro-2-[6-[(2S)-2-(hydroxymethyl)morpholin-4-yl]-4-methyl-pyridazin-3-yl]phenol], the half-inhibitory concentration (IC50) on NLRP3 inflammasome was 33 nM; in experiment [1] it was greater than 10000 nM.

Take `Cc1cc(C)c(-c2ccc(N3CCC[C@]4(C3)C[C@@H](O)C4)nn2)c(O)c1` (single isomer, unassigned; isomer 2) [Example 176, 6-[6-(2-hydroxy-4,6-dimethyl-phenyl)pyridazin-3-yl]-6-azaspiro[3.5]nonan-2-ol Isomer 2]: the IC50 on NLRP3 inflammasome is 250 nM; in experiment [1] it was greater than 10000 nM.

Consider `CC(=O)N1CC[C@H]2OCCN(c3ccc(-c4c(C)cc(C(F)(F)F)cc4O)nn3)[C@H]2C1` (single isomer, unassigned) [Example 262], for which the figures for the IC50 (at NLRP3 inflammasome; in experiment [1]) were 17 nM and greater than 10000 nM, respectively.

On to `Cc1cc(C(F)(F)F)cc(O)c1-c1ccc(N2CCO[C@@H]3CCNC[C@@H]32)nn1` (single isomer, unassigned) [Example 252], for which the values for the half-inhibitory concentration (IC50) (on NLRP3 inflammasome; in experiment [1]) were 461 nM and greater than 10000 nM, respectively.

For the compound `Cc1cc(Cl)cc(O)c1-c1ccc(N2C[C@@H](O)CC2=O)nn1` [Example 130, (4S)-1-[6-(4-chloro-2-hydroxy-6-methyl-phenyl)pyridazin-3-yl]-4-hydroxy-pyrrolidin-2-one], the IC50 was 99 nM at NLRP3 inflammasome and greater than 10000 nM in experiment [1].

With `Cc1cc(Cl)cc(O)c1-c1ccc(N2CCO[C@H](CO)C2)nn1` [Example 63, 5-chloro-2-[6-[(2S)-2-(hydroxymethyl)morpholin-4-yl]pyridazin-3-yl]-3-methyl-phenol], the IC50 on NLRP3 inflammasome is 6 nM; in experiment [1] it was greater than 10000 nM.

As to `CC(=O)N1CC[C@H]2OCCN(c3ccc(-c4c(C)cc(C(F)(F)F)cc4O)nn3)[C@H]2C1` (racemic) [Example 214, 1-[rac-(4aS,8aR)-4-[6-[2-hydroxy-6-methyl-4-(trifluoromethyl)phenyl]pyridazin-3-yl]-3,4a,5,7,8,8a-hexahydro-2H-pyrido[4,3-b][1,4]oxazin-6-yl]ethanone], the IC50 at NLRP3 inflammasome is 36 nM; in experiment [1], greater than 10000 nM.

For `Cc1cc(C)c(-c2ccc(N3CCOC[C@@H]3CO)nn2)c(O)c1` [Example 6, 2-[6-[(3S)-3-(hydroxymethyl)morpholin-4-yl]pyridazin-3-yl]-3,5-dimethyl-phenol], the values for the IC50 (on NLRP3 inflammasome; in experiment [1]) were 235 nM and greater than 10000 nM, respectively.

`CCc1cccc(O)c1-c1ccc(N2CCO[C@@H]3CCN(CC)C[C@@H]32)nn1` [Example 408, 2-[6-[(4aS,8aR)-6-ethyl-3,4a,5,7,8,8a-hexahydro-2H-pyrido[4,3-b][1,4]oxazin-4-yl]pyridazin-3-yl]-3-ethyl-phenol]: the IC50 was 2 nM on NLRP3 inflammasome and greater than 10000 nM in experiment [1].

On to `CCN1CC[C@H]2OCCN(c3ccc(-c4c(C)cc(Cl)cc4O)nn3)[C@H]2C1` (single isomer, unassigned) [Example 313], for which the half-maximal inhibitory concentration (IC50) on NLRP3 inflammasome was 0.3 nM; in experiment [1], greater than 10000 nM.

As to `CCN1C[C@@H]2OCCN(c3ccc(-c4c(C)cc(C(F)(F)F)cc4O)nn3)[C@@H]2C1` (racemic) [Example 361, 3-methyl-2-[6-[rac-(4aR,7aS)-6-ethyl-2,3,4a,5,7,7a-hexahydropyrrolo[3,4-b][1,4]oxazin-4-yl]pyridazin-3-yl]-5-(trifluoromethyl)phenol], the half-maximal inhibitory concentration (IC50) was 8 nM on NLRP3 inflammasome and greater than 10000 nM in experiment [1].

As to `Cc1cc(Cl)cc(O)c1-c1nnc(N2CCO[C@H](CO)C2)cc1C(F)F` [Example 249, 5-chloro-2-[4-(difluoromethyl)-6-[(2S)-2-(hydroxymethyl)morpholin-4-yl]pyridazin-3-yl]-3-methyl-phenol], the 50% inhibitory concentration (IC50) is 151 nM at NLRP3 inflammasome and greater than 10000 nM in experiment [1].

`CC(=O)NC[C@H]1CCCN(c2ccc(-c3c(O)cc(Cl)cc3Cl)nn2)C1` [Example 57, N-[[(3R)-1-[6-(2,4-dichloro-6-hydroxy-phenyl)pyridazin-3-yl]-3-piperidyl]methyl]acetamide]: the concentration for half-maximal inhibition (IC50) is 248 nM on NLRP3 inflammasome and greater than 10000 nM in experiment [1].

On to `CCN1CC[C@@H]2OCCN(c3ccc(-c4c(C)cc(Cl)cc4O)nn3)[C@@H]2C1` (racemic) [Example 223, 5-chloro-3-methyl-2-[6-[rac-(4aR,8aS)-6-ethyl-3,4a,5,7,8,8a-hexahydro-2H-pyrido[4,3-b][1,4]oxazin-4-yl]pyridazin-3-yl]phenol], for which the values for the IC50 (on NLRP3 inflammasome; in experiment [1]) were 1 nM and greater than 10000 nM, respectively.

Consider `Cc1cc(C2CC2)cc(O)c1-c1ccc(N2CCO[C@H](CO)C2)nn1` [Example 204, 5-cyclopropyl-2-[6-[(2S)-2-(hydroxymethyl)morpholin-4-yl]pyridazin-3-yl]-3-methyl-phenol], for which the results for the 50% inhibitory concentration (IC50) (on NLRP3 inflammasome; in experiment [1]) were 54 nM and greater than 10000 nM, respectively.

Turning to `Cc1cc(C)c(-c2ccc(N3CCO[C@@H]4CCN(C5CCC5)C[C@@H]43)nn2)c(O)c1` (single isomer, unassigned) [Example 11], the IC50 was 3 nM at NLRP3 inflammasome and greater than 10000 nM in experiment [1].

On to `CNC(=O)C[C@H]1CN(c2ccc(-c3c(C)cc(C)cc3O)nn2)CCO1` (single isomer, unassigned) [Example 143], for which the results for the IC50 (on NLRP3 inflammasome; in experiment [1]) were 221 nM and greater than 10000 nM, respectively.

Consider `CCc1cc(C(F)(F)F)cc(O)c1-c1ccc(N2CCO[C@@H]3CCN(C(C)=O)C[C@@H]32)nn1` [Example 380, 1-[(4aS,8aR)-4-[6-[2-ethyl-6-hydroxy-4-(trifluoromethyl)phenyl]pyridazin-3-yl]-3,4a,5,7,8,8a-hexahydro-2H-pyrido[4,3-b][1,4]oxazin-6-yl]ethanone], for which the results for the half-inhibitory concentration (IC50) (on NLRP3 inflammasome; in experiment [1]) were 4 nM and greater than 10000 nM, respectively.

Take `CC(=O)N1CC[C@H]2OCCN(c3cc(C)c(-c4ccc(Cl)cc4O)nn3)[C@H]2C1` [Example 357, 1-[(4aS,8aR)-4-[6-(4-chloro-2-hydroxy-phenyl)-5-methyl-pyridazin-3-yl]-3,4a,5,7,8,8a-hexahydro-2H-pyrido[4,3-b][1,4]oxazin-6-yl]ethanone]: the values for the half-maximal inhibitory concentration (IC50) (on NLRP3 inflammasome; in experiment [1]) were 48 nM and greater than 10000 nM, respectively.

For `Cc1cc(C)c(-c2ccc(N3CCOC[C@H]3CO)nn2)c(O)c1` [Example 5, 2-[6-[(3R)-3-(hydroxymethyl)morpholin-4-yl]pyridazin-3-yl]-3,5-dimethyl-phenol], the IC50 is 290 nM on NLRP3 inflammasome and greater than 10000 nM in experiment [1].

Take `Cc1cc(C)c(-c2ccc(N3C[C@@H](CO)O[C@H](C)C3)nn2)c(O)c1` [Example 359, 2-[6-[(2S,6R)-2-(hydroxymethyl)-6-methyl-morpholin-4-yl]pyridazin-3-yl]-3,5-dimethyl-phenol]: the IC50 on NLRP3 inflammasome was 98 nM; in experiment [1], greater than 10000 nM.

What is called IC50 is the concentration needed to halve the response being measured.
